US20100247602A1, “METHOD OF REDUCING THE EFFECTS OF CYTOSTATIC DRUGS ON BONE MARROW DERIVED CELLS, AND METHODS OF SCREENING” (priority 2007, published 2010)
Entries after “also recorded” stand apart in the source; their conditions may differ.

How the values were obtained:
[1] = tested on: bone marrow derived cells (BMDCs); experiment: Proliferation assay of BMDCs (cell count with trypan blue); assay type: cell-based, mouse (C57BL/6 female mice); conditions: for IC50: Mus musculus, BMDC, 168 h, one week treatment, cellular count, read-out: IC50 for cell growth
Experimental: (§1) BMDCs were cultured and isolated as described above.
After this time, cells were processed as described above.

[2] = tested on: bone marrow derived cells (BMDCs); experiment: Differentiation profile of BMDCs by flow cytometry; assay type: cell-based, mouse (C57BL/6 female mice); conditions: for total or sub-populations of CD44+ cells: one week treatment, paclitaxel 5×10^-9M, rapamycin 10^-10M, alone or in combination; for percentage of CD117+ cells: E2 alone (10^−9M) or in combination with paclitaxel (5×10^−9 M), one week
Experimental: as §1
BMDCs were plated and grown during 7 days before treatment (stimulation). Rapamycin (LC Laboratories) or paclitaxel (LC laboratories) were added for a one week treatment at IC50 concentration. Afterward, cells were washed twice in PBS and non specific binding sites were blocked with 5% normal rat serum (Jackson Immunoresearch Laboratories Inc.). To evaluate the differentiation profile of the BMDCs, quadruple stainings were performed as follow: 1) for the HSC allophycocyanin (APC, Caltag Laboratories, Carlsbad, Calif.) conjugated monoclonal rat-anti-mouse CD117, fluorescein isothiocyanate (FITC, BD pharmingen, San Jose, Calif.) conjugated monoclonal rat anti-mouse CD31 (platelet endothelial cell adhesion molecules-1, PECAM), biotin conjugated monoclonal rat anti-mouse CD34 (Bio, BD pharmingen), growth factor receptor-2 (VEGFR2); and 2) for the stromal cells: APC (Abcam Inc., Cambridge Mass.) conjugated monoclonal rat anti-mouse CD90, FITC conjugated (BD pharmingen) monoclonal rat anti-mouse CD44 (hyaluronic acid receptor), PE conjugated monoclonal rat anti-mouse vascular cell adhesion molecule (V-CAM/CD106, Abcam Inc.), biotin (Abcam Inc.) conjugated monoclonal rat anti-mouse CD105 (Endoglin). Corresponding isotype antibodies were used as negative controls; monoclonal rat anti-mouse IgG2a-APC (Abcam Inc.), monoclonal rat anti-mouse IgG2a-FITC, (Abcam Inc.), monoclonal rat anti-mouse IgG2a-PE (BD pharmingen), monoclonal rat anti-mouse IgG2a-Bio (Abcam Inc.). To analyze the biotin conjugated antibody, a secondary antibody streptavidine-ECD (Beckman coulter, Fullerton, Calif.) was used. Data acquisition was performed using 1×10^6 events per sample. Of these events, only low-to-medium FSC (forward scattered channel) and SSC (side scattered channel) singlets were gated for analysis of BM subpopulations. In all cases, gated singlets represented 80 to 90% of acquired events. The acquisition and analysis were performed on an Epics Altra cytometer from Beckman using the EXPO™ 32 system ADC software (Beckman Coulter, Fullerton, Calif.).

[3] = tested on: bone marrow derived cells (BMDCs)
Description: Six-week old C57BL/6 female mice (Jackson Laboratoiries, Bar Harbor, Mass.) were used as bone marrow donors. The mice were euthanized by a ketamine hydrochloride (Bioniche, Belleville, ON) and xylazine (Rompum, Bayer's Inc, Toronto, ON) injections. Total bone marrow cells were collected from femurs and tibia, pooled, and washed twice with phosphate-buffered saline (PBS, Invitrogen corp., Carlsbad, Calif.) contained 2% fetal bovine serum (FBS, Hyclone Laboratories, Logan, Utah). All the bone marrow derived cells (BMDCs) were plated in 6-wells culture plates (Corning, Corning, N.Y.) precoated with rat fibronectin (Calbiochem, San Diego, Calif.), in Hematopoietic Growth Medium (HPGM Lonza, Walkersvelle, Md.) contained 2% fetal bovine serum (FBS, Hyclone Laboratories) and antibiotics (1% penicillin-streptomycin, Invitrogen corp.). Cells were grown in presence of 10 ng/mL platelet derived growth factor (PDGF, Peprotech. Inc, Rocky Hill, N.J.) and 10 ng/mL […] (EGF, Peprotech. Inc.) during the first 7 days. The experimental protocol was approved by the animal care committee of the Montreal Heart Institute.
BMDCs were cultured and isolated as described above. At day 7, complete culture medium was replaced by an incomplete culture medium: HPGM medium, 2% fetal bovine serum ([…] EGF and PDGF), and 1% antibiotics (penicillin and streptomycin) with or without E2 (10^−10 M to 10^−6 M) (Sigma) and/or rapamycin (10^−11M to 10^−6 M) (LC Laboratories, Woburn, Mass.) or paclitaxel (10^−11M to 10^−6 M) (LC laboratories) for another 7 days. In the case of combined treatment, the E2 was added 24 h prior the addition of the drug. First medium change was performed four days after plating and each following three days for a total of 14 days in culture.
After this treatment, the cells were removed from the 6-well culture plate using a 0.02% solution of (ethylenedinitrilo) tetraacetic acid (EDTA, Sigma) and diluted 1:1 in Trypan blue (Invitrogen corp.) before cell count with a hemacytometer (Hausser Bright-line). Total cells number, white cells and blue stained cells were counted. The proliferation rate was defined as the total number of cells over the number of cells at day 0 of the initiation of the treatment. The survival rate was defined as the number of white cells among the total cell population. The mortality rate was defined as the percentage of blue cells (dead cells) among the total cell population. […] The combination assay was achieved by a 24-hour pretreatment of BMDCs with different concentrations of E2 (10^−8 to 10^−10 M) and the drug was added at its IC50 concentration for a one week treatment. After this time, cells were processed as described above.

ERβ = experiment: Western blot, ERβ expression in BMDCs / mBMPC; assay type: cell-based, mouse
Experimental: (§2) Membranes were stripped with Re-Blot Plus™ (International Chemicon) and total protein expression was determined with a goat polyclonal β-actin (1:1000 dilution, Santa Cruz Biotechnology Inc.).

[4] = tested on: bone marrow derived cells (BMDCs); experiment: Necrosis and apoptosis levels (annexin V / propidium iodide flow cytometry); assay type: cell-based, mouse (C57BL/6 female mice); conditions: for number of annexin V positive cells: drug at IC90 dose, 48 hrs
Experimental: After being cultured and isolated as described above, BMDCs were plated in 12-well culture plate. […] The cells were analyzed 24, 48 and 72 hours later after staining with FITC-conjugated annexin V (Alexis biochemical, San Diego, Calif.) and propidium iodide (PI, Sigma). Acquisition and analysis were performed on an Epics Altra cytometer as described in the section above “Analysis of the differentiation profile”.
In order to evaluate the effect of E2, paclitaxel or rapamycin on early apoptosis, late apoptosis and necrosis, BMDC were treated with either E2, paclitaxel or rapamycin and stained with annexin V and propodium iodine. Cells positive for annexin V only are considered in the early phases of apoptosis while cells positive for propodium iodine only are in necrosis. Cells which stained for both annexin V and propiodium iodine are in a more advanced apoptotic process (FIG. 6). The effect of E2 on the levels of apoptotic and necrotic cells in rapamycin or paclitaxel-treated cells was evaluated (FIG. 7)

[5] = tested on: ERα and ERβ expressed by BMDCs; experiment: Western blot, ratio of ERα expression over ERβ in BMDCs; assay type: cell-based, mouse (C57BL/6 female mice); conditions: 24-hour stimulation, at 10^−8 and 10^−7M
Experimental: as §2

ERα = experiment: Western blot, ERα expression in BMDCs / mBMPC; conditions: paclitaxel-treated cells, 24 h, 10^−8 and 10^−7M

Question: How did the “effect on proliferation at very low doses” value ([1]; BMDCs, one week, very low doses) turn out when `CC(=O)O[C@H]1C(=O)[C@@]2(C)[C@H]([C@H](OC(=O)c3ccccc3)[C@]3(O)C[C@H](OC(=O)[C@H](O)[C@@H](NC(=O)c4ccccc4)c4ccccc4)C(C)=C1C3(C)C)[C@]1(OC(C)=O)CO[C@@H]1C[C@@H]2O` [paclitaxel] was run?
Answer: The value was “proliferative effect”.

Question: And the IC50 ([1]; BMDCs)?
Answer: Its IC50 is 5 nM.

Question: And the “total or sub-populations of CD44+ cells” value [2]?
Answer: Its value is “no effect”.

Question: What about the “differentiation profile of CD117+ or CD44+” value ([2]; one-week treatment at IC50 concentration) of the same molecule?
Answer: The value was “does not affect”.

Question: What about the “mortality rate, drug alone” value [3] of the same molecule?
Answer: Its value is “not observed”.

Question: And the “toxicity on bone marrow derived cells” value [3]?
Answer: The value was “toxic”.

Question: What about the ERβ expression (ERβ; paclitaxel-treated cells, 24 h, 10^−8 and 10^−7M) of the same molecule?
Answer: The ERβ expression was “induction”.

Question: What about the “number of annexin V positive cells” value [4] of the same molecule?
Answer: The value was “increased significantly”.

Question: What about the “drop in ERα/ERβ ratio” value [5] of the same molecule?
Answer: The value was “up to 50%”.

Question: What about the ERα expression (ERα) of the same molecule?
Answer: Its ERα expression is “decrease”.

Question: What does the source list for `CO[C@H]1C[C@@H]2CC[C@@H](C)[C@@](O)(O2)C(=O)C(=O)N2CCCC[C@H]2C(=O)O[C@H]([C@H](C)C[C@@H]2CC[C@@H](O)[C@H](OC)C2)CC(=O)[C@H](C)/C=C(\C)[C@@H](O)[C@@H](OC)C(=O)[C@H](C)C[C@H](C)/C=C/C=C/C=C/1C` [rapamycin]?
Answer: IC50 ([1]; BMDCs): 0.1 nM; total or sub-populations of CD44+ cells [2]: no effect; mortality rate, drug alone [3]: significantly increased; toxicity on bone marrow derived cells [3]: toxic; number of annexin V positive cells [4]: increased significantly

Question: Which “number of living cells” value ([1]; one-week treatment with a dose range of E2, compared to cells maintained in HPGM) does the source give for `C[C@]12CC[C@@H]3c4ccc(O)cc4CC[C@H]3[C@@H]1CC[C@@H]2O` [E2, 17-beta-estradiol] here?
Answer: Its value is “not affected”.

Question: What about the “percentage of CD117+ cells” value [2] of the same molecule?
Answer: The value was “tended to increase; also recorded: increases”.

Question: What about the “percentage of CD117+ cells” value ([2]; listed as Estradiol) of the same molecule?
Answer: The value was “increase”.

Question: And the “level (%) of CD117+ cells in paclitaxel-treated BMDCs” value ([2]; in the presence of E2 (24 h pre-treatment), paclitaxel 5×10^−9 M)?
Answer: The value was “higher level”.

Question: And the “total or sub-populations of CD44+ cells” value [2]?
Answer: Its value is “no effect”.

Question: What about the “number of CD14+ cells” value ([2]; two weeks in culture including one week with various doses of E2) of the same molecule?
Answer: Its value is “does not influence”.

Question: What about the “dead cells (percentage of dead cells)” value [3] of the same molecule?
Answer: The value was “not affected”.

Question: What about the “reduction of mortality rate” value [3] of the same molecule?
Answer: The value was 7-11%.

Question: What about the “improvement of survival rate” value ([3]; 10^−10M E2 added to rapamycin or paclitaxel at IC50, one week, compared to cells treated with the drug only) of the same molecule?
Answer: The value was “about 30%”.

Question: And the “regulation of ERβ expression” value (ERβ; mBMPC, 24-hour stimulation with various doses of E2 (not shown))?
Answer: The value was “No regulation”.

Question: And the “apoptotic and necrotic cells rates” value ([4]; 1 week incubation, alone or in combination with E2, flow cytometry)?
Answer: The value was “no appreciable differences”.

Question: And the “percentage of annexin V positive cells” value ([4]; E2 combined with rapamycin IC50, 48 hrs, compared to rapamycin IC50 alone)?
Answer: The value was “tended to reduce”.

Question: What about the “blocking of the drug-induced (IC90) increase of annexin V positive cells” value ([4]; E2 combined with rapamycin or paclitaxel at IC90, 48 hrs stimulations) of the same molecule?
Answer: Its value is “could not be blocked”.
